# Laboratory results taken from patent US8329751B2, “Compounds having aryl-sulphonamidic structure useful as metalloproteases inhibitors” (Bracco Imaging S.p.A., priority 2007, dated 2012).
# Columns and labels:
# [1] = biological target: T1, MMP-2 (Homo sapiens, UniProt P08253); experiment: MMP inhibition assay, fluorogenic substrate FS-6, MMP-2; assay type: biochemical; conditions: substrate FS-6 2 μM; enzyme and inhibitor incubated 4 h at 25° C.
# T1 construct: supplied by Prof; Gillian Murphy (Department of Oncology, University of Cambridge, UK); not a commercial purchase
# T1 sequence (P08253 110-660): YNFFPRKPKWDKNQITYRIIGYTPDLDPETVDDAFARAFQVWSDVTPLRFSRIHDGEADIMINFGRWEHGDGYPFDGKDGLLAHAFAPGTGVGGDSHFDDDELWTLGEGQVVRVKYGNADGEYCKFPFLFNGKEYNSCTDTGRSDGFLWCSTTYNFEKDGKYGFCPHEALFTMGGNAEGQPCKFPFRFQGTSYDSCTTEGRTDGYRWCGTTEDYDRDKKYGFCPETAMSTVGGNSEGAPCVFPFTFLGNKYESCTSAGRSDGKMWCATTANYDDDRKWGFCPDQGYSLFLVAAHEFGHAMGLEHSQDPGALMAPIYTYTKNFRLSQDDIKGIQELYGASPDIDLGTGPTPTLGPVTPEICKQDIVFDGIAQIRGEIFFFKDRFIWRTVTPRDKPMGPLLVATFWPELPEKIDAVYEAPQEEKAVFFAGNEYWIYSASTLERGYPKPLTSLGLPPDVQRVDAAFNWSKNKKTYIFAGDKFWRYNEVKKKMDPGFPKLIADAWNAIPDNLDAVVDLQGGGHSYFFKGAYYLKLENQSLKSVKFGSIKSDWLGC
# Experimental: (§1) As reported therein, the inhibitory activity of the compounds of the invention was evaluated on the known fluorogenic substrate (Mca-Lys-Pro-Leu-Gly-Leu-Dpa-Ala-Arg-NH2), shortly referred to as FS-6 (see, as a reference, U. Neumann, Analytical Biochem. 2004, 328, 166-173).
# (§2) Recombinant human pro-MMP-2 was supplied by Prof. Gillian Murphy (Department of Oncology, University of Cambridge, UK), while pro-MMP-13 and pro-MMP-14 were purchased from Calbiochem. […] Pro-MMP-14 was activated with trypsin 5 μg/ml for 15 min at 37° C. followed by soybean trypsin inhibitor (SBTI) 23, μg/ml. For assay measurements, the inhibitor stock solutions (DMSO, 100 mM) were further diluted, at seven different concentrations (0.01 nM-100 μM) for each MMP in the fluorimetric assay buffer (FAB: Tris 50 mM, pH=7.5, NaCl 150 mM, CaCl2 10 mM, Brij 35 0.05% and DMSO 1%). Activated enzyme (final concentration 2.9 nM for MMP-2, 1 nM for MMP-14, 0.33 nM for MMP-13) and inhibitor solutions were incubated in the assay buffer for 4 h at 25° C. After the addition of 200 μM solution of the fluorogenic substrate Mca-Lys-Pro-Leu-Gly-Leu-Dpa-Ala-Arg-NH2 (Bachem) (see, for a reference, Neumann, U.; Kubota, H.; Frei, K.; Ganu, V.; Leppert, D. Anal. Biochem. 2004, 328, 166) for all of the enzymes in DMSO (final concentration 2 μM), the hydrolysis was monitored every 15 sec. for 20 min recording the increase in fluorescence (λex=325 nm, λem=395 nm) using a Molecular Device SpectraMax Gemini XS plate reader.
# (§3) The assays were performed in triplicate, in a total volume of 200 μl per well, in 96-well microtitre plates (Corning, black, NBS). Control wells lack inhibitor. The MMP inhibition activity was expressed in relative fluorescent units (RFU). Percent of inhibition was calculated from control reactions without the inhibitor. IC50 was determined using the formula: Vi/Vo=1/(1+[I]/IC50), where V, is the initial velocity of substrate cleavage in the presence of the inhibitor at concentration [I] and Vo is the initial velocity in the absence of the inhibitor. Results were analyzed using SoftMax Pro software and GraFit software.
# [2] = biological target: MMP-13 (Homo sapiens, UniProt P45452); experiment: MMP inhibition assay, fluorogenic substrate FS-6, MMP-13; assay type: biochemical; conditions: substrate FS-6 2 μM; enzyme and inhibitor incubated 4 h at 25° C.
# Experimental: as §1, §2, §3
# [3] = biological target: T2, MMP-14 (Homo sapiens, UniProt P50281); experiment: MMP inhibition assay, fluorogenic substrate FS-6, MMP-14; assay type: biochemical; conditions: substrate FS-6 2 μM; enzyme and inhibitor incubated 4 h at 25° C.
# T2 construct: purchased Calbiochem
# Experimental: as §1, §2, §3
# [4] = test system: HUVEC; experiment: HUVEC growth assay (crystal violet); assay type: cell-based, human
# Experimental: (§4) Compound (2), as a representative compound of the invention, was tested in an in vivo assay to evaluate its inhibitory activity on cancer cells. In particular, HUVEC cultures were purchased from Cascade Biologics (Portland, Oreg.) and cultured in gelatin-coated flasks using M199, 10% FCS (Fetal Calf Serum, Seromed, Milan, Italy) supplemented with FGF (Fibroblast Growth Factor, PeproTech, Inc., Rocky Hill, N.J.) (1 μg aFGF (acidic Fibroblast Growth Factor)+1 μg bFGF (basic Fibroblast Growth Factor)/100 ml medium), EGF (Epidermal Growth Factor) (1 μg/100 ml medium), heparin (10 mg/100 ml medium), (ICN Pharmaceuticals, Inc., Casta Mesa, Calif.), hydrocortisone (Sigma Chemical Co.) (0.1 mg/100 ml medium).
# At day 0 cells were plated in 96 microwell plates at 1000 cells in 200 μl of complete culture medium. The inhibitor was added to the cells at different concentrations (10, 100 μM). HUVEC were quantified at 24, 48 and 72 hrs. Indirect optical density (OD) quantification was obtained fixing/staining the cells for 20 minutes with a crystal violet solution [see, for a reference, Fassina, G. et al., Clin Cancer Res, (2004) 10, 4865-73].
# [5] = test system: HUVEC; experiment: HUVEC chemoinvasion in Boyden chambers; assay type: cell-based, human; conditions: 100 μM, 5 hours
# Experimental: as §4, with “N.J.) (1 μg aFGF” left out, “[…].),” for “Casta Mesa, Calif.),”, “medium). HUVEC invasion was assessed in Boyden chambers (Costar) using serum-free fibroblast conditioned medium (FB-CM) as chemoattractants. Cells were treated with the inhibitor at the indicated doses and incubated at 37° C. for 5 hours in humidified atmosphere. Cell invasion was assessed by densitometric scanning of whole filter surface. Each test was performed in triplicate and repeated three times [see, for a reference, Albini, A., et al., Int. J. Dev. Biol., (2004), 48, 563-71].” for “medium).”
# [6] = test system: HUVEC; experiment: pro-apoptotic activity on HUVEC; assay type: cell-based, human
Compound,IC50 [1] [nM],IC50 [2] [nM],IC50 [3] [nM],"cell growth inhibition as compared to untreated controls ([4]; 10 and 100 μM, 24, 48 and 72 hrs)","inhibition at 100 µM ([4]; Homo sapiens, 100 μM, starting from 48 hours of treatment, read-out: cell growth inhibition) [%]",inhibitory activity on endothelial cell migration through a reconstituted basement membrane [5],induction of programmed cell death ([6]; at 48 hours),pro-apoptotic activity ([6]; high dose (100 μM))
"CC(C)ON([C@H](CCNC(=O)OCc1ccccc1)C(=O)NO)S(=O)(=O)c1ccc(-c2ccccc2)cc1 [Reference Compound (5b), reference compound]",8.4 ± 0.1,4.4 ± 0.5,240 ± 19,,,,,
"CC(C)ON([C@H](CCNS(C)(=O)=O)C(=O)NO)S(=O)(=O)c1ccc(-c2ccccc2)cc1 [Compound 1c, (R)—N-hydroxy-2-(N-isopropoxybiphenyl-4-ylsulfonamido)-4-(methylsulfonamido)butanamide]",0.98 ± 0.12,2.2 ± 0.3,95.5 ± 4.5,,,,,
"COc1ccc(-c2ccc(S(=O)(=O)N(OC(C)C)[C@H](CCN3C(=O)c4ccccc4C3=O)C(=O)NO)cc2)cc1 [Compound 2, (R)-4-(1,3-dioxoisoindolin-2-yl)-N-hydroxy-2-(N-isopropoxy-4′-methoxybiphenyl-4-ylsulfonamido)butanamide]",0.67 ± 0.06,0.19 ± 0.01,3.9 ± 0.18,time and dose dependent cell growth inhibition,100,significant inhibitory activity,ability to induce programmed cell death,some pro-apoptotic activity
"CC(C)ON([C@H](CCNC(=O)c1ccccc1)C(=O)NO)S(=O)(=O)c1ccc(-c2ccccc2)cc1 [Compound 1b, (R)—N-(4-(hydroxyamino)-3-(N-isopropoxybiphenyl-4-ylsulfonamido)-4-oxobutyl)benzamide]",1.48 ± 0.17,4.6 ± 0.1,94,,,,,
"CC(C)ON([C@H](CCNC(=O)Cc1ccccc1)C(=O)NO)S(=O)(=O)c1ccc(-c2ccccc2)cc1 [Compound 1e, (R)—N-hydroxy-2-(N-isopropoxybiphenyl-4-ylsulfonamido)-4-(2-phenylacetamido)butanamide]",1.43 ± 0.1,1.4 ± 0.1,80.7 ± 5.4,,,,,

# The next compounds have a lower IC50 [1] than those just listed; values first:
IC50 [1] [nM],IC50 [2] [nM],IC50 [3] [nM],Compound,"cell growth inhibition as compared to untreated controls ([4]; 10 and 100 μM, 24, 48 and 72 hrs)","inhibition at 100 µM ([4]; Homo sapiens, 100 μM, starting from 48 hours of treatment, read-out: cell growth inhibition) [%]",inhibitory activity on endothelial cell migration through a reconstituted basement membrane [5],induction of programmed cell death ([6]; at 48 hours),pro-apoptotic activity ([6]; high dose (100 μM))
0.33 ± 0.02,0.68 ± 0.1,41.1 ± 1.16,"CC(=O)NCC[C@H](C(=O)NO)N(OC(C)C)S(=O)(=O)c1ccc(-c2ccccc2)cc1 [Compound 1d, (R)-4-acetamido-N-hydroxy-2-(N-isopropoxybiphenyl-4-ylsulfonamido)butanamide]",,,,,
0.37 ± 0.06,0.25 ± 0.02,24.7 ± 2.2,"COc1ccc(-c2ccc(S(=O)(=O)N(OC(C)C)[C@H](CCNC(=O)Cc3ccccc3)C(=O)NO)cc2)cc1 [Compound 1g, (R)—N-hydroxy-2-(N-isopropoxy-4′-methoxybiphenyl-4-ylsulfonamido)-4-(2-phenylacetamido)butanamide]",,,,,
0.3 ± 0.03,0.2 ± 0.01,27 ± 1,COc1ccc(-c2ccc(S(=O)(=O)N(OCCOCCN3CCNCC3)[C@H](CCNC(=O)OCc3ccccc3)C(=O)NO)cc2)cc1 [Compound 1j],,,,,
0.13 ± 0.03,0.58 ± 0.04,23.5 ± 2.2,"COc1ccc(-c2ccc(S(=O)(=O)N(OC(C)C)[C@H](CCNC(C)=O)C(=O)NO)cc2)cc1 [Compound 1f, (R)-4-acetamido-N-hydroxy-2-(N-isopropoxy-4′-methoxybiphenyl-4-ylsulfonamido)butanamide]",,,,,
